# Legend:
# [1] = target: T1, cGMP-dependent protein kinase 1 (Homo sapiens) (UniProt Q13976); assay: Inhibition of human full length PKG-1beta expressed in baculovirus assessed as substrate phosphorylation using fluorescence-labelled peptides as substrate at 8 uM after 90 mins by microfluidic peptide phosphorylation assay
# T1 sequence (whole entry): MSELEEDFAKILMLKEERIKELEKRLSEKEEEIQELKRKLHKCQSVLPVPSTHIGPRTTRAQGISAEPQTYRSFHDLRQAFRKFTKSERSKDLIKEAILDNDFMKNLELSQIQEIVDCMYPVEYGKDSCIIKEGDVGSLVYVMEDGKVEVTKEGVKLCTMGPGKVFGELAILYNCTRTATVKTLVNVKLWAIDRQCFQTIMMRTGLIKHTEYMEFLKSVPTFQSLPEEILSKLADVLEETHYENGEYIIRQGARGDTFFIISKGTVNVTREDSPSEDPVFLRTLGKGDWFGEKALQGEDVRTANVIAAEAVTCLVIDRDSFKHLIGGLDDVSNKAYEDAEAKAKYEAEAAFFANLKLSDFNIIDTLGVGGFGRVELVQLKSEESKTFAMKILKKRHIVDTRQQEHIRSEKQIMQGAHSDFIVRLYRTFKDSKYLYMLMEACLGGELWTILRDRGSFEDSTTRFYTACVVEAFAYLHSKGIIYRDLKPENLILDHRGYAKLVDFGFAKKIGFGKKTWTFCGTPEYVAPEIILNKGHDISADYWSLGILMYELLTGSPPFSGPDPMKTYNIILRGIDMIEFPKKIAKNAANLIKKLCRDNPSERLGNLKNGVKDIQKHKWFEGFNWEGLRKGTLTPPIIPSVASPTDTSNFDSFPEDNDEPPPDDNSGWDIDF
# [2] = target: T2, Protein kinase C zeta type (Homo sapiens) (UniProt Q05513); assay: Inhibition of human full length PKC zeta expressed in baculovirus assessed as substrate phosphorylation using fluorescence-labelled peptides as substrate at 0.2 uM after 90 mins by microfluidic peptide phosphorylation assay
# T2 sequence (whole entry): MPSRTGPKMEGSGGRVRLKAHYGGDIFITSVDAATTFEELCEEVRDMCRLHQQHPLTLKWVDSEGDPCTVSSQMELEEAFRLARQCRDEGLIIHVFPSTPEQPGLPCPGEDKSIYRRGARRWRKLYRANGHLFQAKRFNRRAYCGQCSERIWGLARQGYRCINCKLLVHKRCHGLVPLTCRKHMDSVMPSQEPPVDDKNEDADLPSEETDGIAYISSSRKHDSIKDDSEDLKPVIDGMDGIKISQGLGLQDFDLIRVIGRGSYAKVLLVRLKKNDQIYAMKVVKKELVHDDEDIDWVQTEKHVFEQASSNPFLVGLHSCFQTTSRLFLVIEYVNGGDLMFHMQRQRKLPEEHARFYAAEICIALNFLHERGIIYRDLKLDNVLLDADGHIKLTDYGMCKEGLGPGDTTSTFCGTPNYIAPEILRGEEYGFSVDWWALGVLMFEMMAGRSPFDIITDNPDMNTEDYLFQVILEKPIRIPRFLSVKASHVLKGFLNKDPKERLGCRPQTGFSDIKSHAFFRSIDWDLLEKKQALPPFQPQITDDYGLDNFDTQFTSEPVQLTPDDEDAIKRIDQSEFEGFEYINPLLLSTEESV
# [3] = target: T3, Testis-specific serine/threonine-protein kinase 2 (Homo sapiens) (UniProt Q96PF2); assay: Inhibition of human full length TSSK2 expressed in baculovirus assessed as substrate phosphorylation using fluorescence-labelled peptides as substrate at 0.2 uM after 90 mins by microfluidic peptide phosphorylation assay
# T3 sequence (whole entry): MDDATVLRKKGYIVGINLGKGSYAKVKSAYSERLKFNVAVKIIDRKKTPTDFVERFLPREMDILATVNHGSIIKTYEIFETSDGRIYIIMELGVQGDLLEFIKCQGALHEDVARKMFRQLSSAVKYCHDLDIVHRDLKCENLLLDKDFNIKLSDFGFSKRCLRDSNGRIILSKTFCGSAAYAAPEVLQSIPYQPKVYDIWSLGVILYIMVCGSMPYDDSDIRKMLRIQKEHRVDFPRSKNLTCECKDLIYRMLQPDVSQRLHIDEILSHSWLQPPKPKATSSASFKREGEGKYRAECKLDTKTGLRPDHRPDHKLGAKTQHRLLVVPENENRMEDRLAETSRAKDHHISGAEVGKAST
# [4] = target: Dual specificity tyrosine-phosphorylation-regulated kinase 1A (Rattus norvegicus) (UniProt Q63470); assay: Inhibition of rat full length DYRK1a expressed in Escherichia coli cell assessed as substrate phosphorylation using fluorescence-labelled peptides as substrate at […] after 90 mins by microfluidic peptide phosphorylation assay
# [5] = target: Cyclin-dependent kinase 2 (Homo sapiens) (UniProt P24941); assay: Inhibition of human full length CDK2 expressed in baculovirus assessed as substrate phosphorylation using fluorescence-labelled peptides as substrate at 9 uM after 90 mins by microfluidic peptide phosphorylation assay
# Homo sapiens = species on record: Homo sapiens; assay: Inhibition of human P70S6K catalytic domain expressed in baculovirus assessed as substrate phosphorylation using fluorescence-labelled peptides as substrate at 95 uM after 90 mins by microfluidic peptide phosphorylation assay
# [6] = target: T4, Aurora kinase A (Homo sapiens) (UniProt O14965); assay: Inhibition of human full length AurA expressed in baculovirus assessed as substrate phosphorylation using fluorescence-labelled peptides as substrate at 1000 uM after 90 mins by microfluidic peptide phosphorylation assay
# T4 sequence (whole entry): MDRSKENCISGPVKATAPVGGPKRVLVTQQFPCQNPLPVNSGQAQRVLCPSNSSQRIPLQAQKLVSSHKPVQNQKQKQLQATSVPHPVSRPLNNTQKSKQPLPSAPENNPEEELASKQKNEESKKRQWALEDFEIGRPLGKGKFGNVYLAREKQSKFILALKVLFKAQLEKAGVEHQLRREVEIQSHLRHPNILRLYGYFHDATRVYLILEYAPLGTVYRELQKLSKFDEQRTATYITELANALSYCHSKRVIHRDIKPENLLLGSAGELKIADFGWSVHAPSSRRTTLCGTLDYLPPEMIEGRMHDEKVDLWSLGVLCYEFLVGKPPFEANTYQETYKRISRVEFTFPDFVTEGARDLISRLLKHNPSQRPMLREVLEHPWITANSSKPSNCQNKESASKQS
# [7] = target: Ribosomal protein S6 kinase alpha-1 (Homo sapiens) (UniProt Q15418); assay: Inhibition of human full length RSK1 expressed in baculovirus assessed as substrate phosphorylation using fluorescence-labelled peptides as substrate at 70 uM after 90 mins by microfluidic peptide phosphorylation assay
# Sequence of Ribosomal protein S6 kinase alpha-1 (Homo sapiens) (Q15418 whole entry): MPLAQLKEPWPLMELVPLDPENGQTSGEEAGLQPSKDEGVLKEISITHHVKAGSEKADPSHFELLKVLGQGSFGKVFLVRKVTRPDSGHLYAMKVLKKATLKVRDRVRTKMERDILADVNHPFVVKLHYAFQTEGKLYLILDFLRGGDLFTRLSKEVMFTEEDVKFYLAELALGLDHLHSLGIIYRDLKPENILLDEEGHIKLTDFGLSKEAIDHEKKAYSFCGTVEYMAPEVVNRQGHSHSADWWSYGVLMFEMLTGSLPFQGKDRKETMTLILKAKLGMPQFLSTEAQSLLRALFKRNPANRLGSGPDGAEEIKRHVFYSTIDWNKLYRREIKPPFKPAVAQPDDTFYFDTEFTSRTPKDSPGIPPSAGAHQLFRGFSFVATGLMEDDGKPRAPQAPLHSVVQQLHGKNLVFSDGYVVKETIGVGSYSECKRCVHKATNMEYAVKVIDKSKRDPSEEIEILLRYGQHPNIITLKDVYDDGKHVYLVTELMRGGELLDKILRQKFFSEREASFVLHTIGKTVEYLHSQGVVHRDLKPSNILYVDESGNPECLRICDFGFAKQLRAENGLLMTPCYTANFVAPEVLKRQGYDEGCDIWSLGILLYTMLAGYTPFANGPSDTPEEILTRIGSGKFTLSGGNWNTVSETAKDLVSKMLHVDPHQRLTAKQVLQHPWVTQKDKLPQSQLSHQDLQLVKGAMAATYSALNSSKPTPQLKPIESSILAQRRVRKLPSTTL
smiles,measurement,setting,value
NCC1CCN(c2ncnc3[nH]ccc23)CC1,inhibition,[1],76.5%
Clc1ccc(C2(c3ccc(-c4ncnc5[nH]cnc45)cc3)CCNCC2)cc1,inhibition,[2],1%
same,inhibition,[3],7%
COC(=O)c1cnc(Nc2cnc(C#N)cn2)cc1NCC1CCNCC1,inhibition,[4],1.5%
NCC1CN(c2ncnc3[nH]c4cnccc4c23)CCO1 (stereo not drawn),inhibition,[5],26.5%
NCCc1ccc(-c2ncnc3[nH]cnc23)cc1,inhibition,Homo sapiens,49%
c1cnc2[nH]ccc2c1,inhibition,[6],88%
CNCc1ccc(-c2ncnc3[nH]cnc23)cc1,inhibition,[7],48%

# Reference: ChEMBL document CHEMBL3132769, “Fragment growing to retain or alter the selectivity of anchored kinase hinge-binding fragments” (Medchemcomm, 2014)
